From patent US20070227399A1, “COMPOSITIONS AND METHODS FOR THE PRESERVATION OF WOOD” (Novus International Inc., priority 2006, published 2007)

How the values were obtained:
[1] = system: Gloeophyllum trabeum (ATCC 11539); assay: AWPA E10-01 laboratory soil-block culture decay test of treated southern pine blocks; type: cell-based; conditions: for Mean percent weight loss (s.d. in parentheses), G. trabeum: unleached southern pine blocks, 12 weeks, n = 5
Protocol: (§1) The decay resistance of southern pine treated with six experimental wood preservative formulations and exposed to two brown rot fungal species were tested using the AWPA E10-01 “Standard Method of Testing Wood Preservatives by Laboratory Soil-Block Cultures.” For this, conditioned blocks of wood are treated with suitable solutions of preservative. After a conditioning period, the wood blocks are exposed to a recognized destructive species of wood-destroying fungi. The minimum amount of preservative that protects the wood blocks against decay by a given fungus is defined as the threshold retention for that organism. Failure to protect is evidenced by loss of mass from the treated wood blocks, as indicated by a loss of weight.
(§2) Preparation of wood. Southern pine sapwood (Pinus spp.) with 6-10 rings/inch and clear of knots or other obvious defects was used. The wood was milled into test blocks of 19 mm×19 mm×19 mm. The test cubes were divided into density groups of ±5%, with 5 blocks per treatment or control. One feeder strip is needed for each block in a culture bottle. The sapwood selected for feeder strips should be capable of furnishing a satisfactory growth of the test fungus. Southern pine sapwood feeder strips were cut to approximately 3 by 28 by 34 mm with the grain of the wood parallel to either of the long dimensions and with the edge grain (radial surface) exposed to the flat face, insofar as possible.
(§3) The test blocks were pressure treated with the test preservatives, solvent alone, or two control wood preservatives, ACQ-Type D and propiconazole […] according to procedures detailed in AWPA Standard E7-01. Several of the compounds detailed in Table 1 are commercially available from Novus International, Saint Louis, Mo. (i.e., the composition abbreviated Biox AUSD is a blend of organic acid, inorganic acid and HMTBA and is sold under the trade name ACTIVATE® US WD; the compound abbreviated Biox C is HMBTA-Cu and is sold under the trade name MINTREX® Cu; the compound Biox C/Biox SE is a blend of ethoxyquin and HMTBA-Cu; the compound abbreviated Biox SE is ethoxyquin emulsion; the compound abbreviated Biox T is an antioxidant blend sold under the trade name TOXGUARD®, and the compound abbreviated Biox Z is HMTBA-Zn is sold under the trade name MINTREX® Zn).
(§4) Briefly, a full cell pressure process, simulating commercial practice as far as possible with laboratory plant equipment, using an initial vacuum, suitable temperature, and an appropriate pressure period was used. The amount of preservative absorbed by the block, i.e., the retention, was calculated for each preservative. After the test blocks were treated and weighed to obtain absorption, they were exposed to open laboratory conditions until the solvent evaporated and the moisture content was relatively stable. Then they were placed in a conditioning room for 21 days. The blocks were tested in the unleached condition.
(§5) Preparation of soil culture bottles. A soil substrate with a water holding capacity between 20% and 40% and a pH between 5.0 and 8.0 was used. The soil substrate, sifted and lightly compacted by tapping, was placed in 8-oz cylindrical culture bottles fitted with screw caps without liners. The bottles were about half-full. This amount of soil, about 118 ml for an 8-oz. culture bottle, weighed not less than 90 g when oven-dried. […] The soil was leveled and one feeder strip per block was placed in each bottle. The soil-filled bottles were autoclaved for 30 min (one time), with the caps loosened. Lids on jars with a breather hole were covered with a strip of cloth first-aid tape.
(§6) Preparation of test cultures. […] Sections (e.g., 10 mm squares) were cut from near the leading edge of mycelium in petri dish cultures and placed in contact with an edge of a feeder strip on the soil of the culture bottles.

[2] = system: Postia placenta (Madison 698); assay: as above; type: cell-based; conditions: for Mean percent weight loss (s.d. in parentheses), P. placenta: unleached southern pine blocks, 12 weeks, n = 5
Protocol: as §1, §2, §3, §4, §5, §6

[3] = over all Biox C retentions, ethanolamine retention 36 kg/m^3, no observable dose response

| Compound | weight losses, G. trabeum [1, 3] | Mean percent weight loss (s.d. in parentheses), G. trabeum ([1]; retention 0.05 kg/m^3) | Mean percent weight loss (s.d. in parentheses), G. trabeum ([1]; retention 0.10 kg/m^3) | Mean percent weight loss (s.d. in parentheses), G. trabeum ([1]; retention 0.50 kg/m^3) | Mean percent weight loss (s.d. in parentheses), G. trabeum ([1]; retention 2.00 kg/m^3) | weight losses, P. placenta [2, 3] [%] | Mean percent weight loss (s.d. in parentheses), P. placenta ([2]; retention 0.05 kg/m^3) | Mean percent weight loss (s.d. in parentheses), P. placenta ([2]; retention 0.10 kg/m^3) | Mean percent weight loss (s.d. in parentheses), P. placenta ([2]; retention 0.50 kg/m^3) | Mean percent weight loss (s.d. in parentheses), P. placenta ([2]; retention 2.00 kg/m^3) | Mean percent weight loss (s.d. in parentheses), G. trabeum ([1]; retention 0.010 kg/m^3) | Mean percent weight loss (s.d. in parentheses), G. trabeum ([1]; retention 0.025 kg/m^3) | Mean percent weight loss (s.d. in parentheses), P. placenta ([2]; retention 0.010 kg/m^3) | Mean percent weight loss (s.d. in parentheses), P. placenta ([2]; retention 0.025 kg/m^3) |
| --- | --- | --- | --- | --- | --- | --- | --- | --- | --- | --- | --- | --- | --- | --- |
| CSCCC(O)C(=O)[O-].CSCCC(O)C(=O)[O-].[Cu+2] (centres unmarked) [Biox C, copper bis(2-hydroxy-4-methylthio)butanoic acid] | approximately 6.5% | 5.5 (0.7) % | 6.9 (1.8) % | 6.1 (0.7) % | 10.2 (5.3) % | ~5.0 | 4.5 (0.8) % | 5.0 (1.0) % | 6.1 (0.4) % | 5.1 (0.7) % | – | – | – | – |
| CSCCC(O)C(=O)[O-].CSCCC(O)C(=O)[O-].[Zn+2] (centres unmarked) [Biox Z] | – | 38.8 (3.3) % | 26.4 (8.5) % | 28.9 (15.2) % | 27.8 (6.1) % | – | 50.4 (2.9) % | 47.7 (5.1) % | 42.6 (23.8) % | 26.1 (23.2) % | – | – | – | – |
| CC(C)(C)C(O)(CCc1ccc(Cl)cc1)Cn1cncn1 (centres unmarked) [Tebuconazole, reference compound] | – | 3.2 (1.3) % | 1.0 (0.4) % | – | – | – | 15.5 (13.6) % | 2.8 (3.1) % | – | – | 15.5 (3.7) % | 11.8 (8.3) % | 24.9 (21.8) % | 22.4 (17.4) % |
